Assay: Stability of Latanoprost in PEA III formulations and compatibility with film casting, evaluated by 1H NMR
Format: physicochemical
Description: For film casting, solutions were prepared in a suitable solvent resulting in solutions with viscosities low enough for solvent casting. Exact amounts of PEA-III ac Bz and API (Active Pharmaceutical Ingredient) were weighed and dissolved with a suitable solvent. The API payload is determined over the polymer weight. API payload of 10% was used. The API/polymer/solvent formulations were poured into petri dishes (4 cm diameter) and covered to reduce evaporation rates of the solvent and prevent formation of air bubbles. The solvent was evaporated for 2 days at TT in a fumehood followed by 2 days @ 750 mBar, 1 day @ 500 mBar and 2 days at full vacuum. From the resulting films, discs were cut with diameter of 10 mm and approximate thicknesses of 500 μm.
A sample was prepared by dissolving ˜10 mg of material in 1 ml of deuterated THF in a 10 ml glass vial. The sample was allowed sufficient time for complete dissolution. ^1H NMR spectra was recorded on a 300 MHz Bruker Avance 300, ARX 400 NMR instrument.
Stability of Latanoprost in formulations and compatibility with film casting procedure was evaluated by ^1H NMR.

CC(C)OC(=O)CCC/C=C\C[C@@H]1[C@@H](CC[C@@H](O)CCc2ccccc2)[C@H](O)C[C@@H]1O [Latanoprost]
Stability of Latanoprost (degradation of API) by 1H NMR (PEA III formulations with Latanoprost stored @ 4° C. for 3 months): did not indicate any degradation
Stability of Latanoprost (degradation of API) by 1H NMR (initial PEA III formulations with Latanoprost, after film casting): did not indicate any degradation

From US20140105957A1, “BIS-(ALPHA-AMINO-DIOL-DIESTER) CONTAINING POLYESTERAMIDE FOR OPHTAMOLOGY” (DSM IP ASSETS B.V., priority 2011, published 2014)
